“Also recorded” adds a separate entry of the source. Like-named read-outs stand apart in the source and are kept apart here.
Legend:
Type in all cases: cell-based
[1] = system: immortalized human meibomian gland epithelial cells; experiment: LipidTOX green neutral lipid staining (lipid accumulation); details: for accumulation of neutral lipids: 10 nM, 6 days, differentiation media; for accumulation of lipid: days 1 to 7
Method: (§1) As an example of these experiments, immortalized human meibomian gland epithelial cells were cultured in the presence or absence of 10% fetal bovine serum. Cells were treated with an ethanol vehicle or azithromycin (10 μg/ml; Santa Cruz Biotechnology) for varying time periods. Cellular morphological appearance was recorded, cells were counted with a hemocytometer, and lipid accumulation was assessed by staining the cells with LipidTOX green neutral lipid stain (Invitrogen, Grand Island, N.Y.), according to reported methods. Staining fluorescent intensities were quantified by using ImageJ (http://rsbweb.nih.gov/ij/index.html). Statistical analyses were performed with Student's t-test (two-tailed, unpaired).
(§2) Immortalized human meibomian gland epithelial cells (IHMGECs; passages 20-22) were cultured in the presence or absence of 10% fetal bovine serum. Cells were treated with the ethanol vehicle or azithromycin (10 μg/mL) for varying periods. Cellular morphological appearance was recorded, cells were counted with a hemocytometer, and lipid accumulation was assessed by staining cells with LipidTOX green neutral lipid stain (Invitrogen Corp). Staining fluorescent intensities were quantified using ImageJ software (http://rsbweb.nih.gov/ij/index.html). Statistical analyses were performed with t test (2-tailed, unpaired).
Cell numbers were enumerated with a hemocytometer. Cellular lipid and lysosome accumulation were examined by staining cells with: Filipin III (a fluorometric probe for identifying unesterified cholesterol), LipidTOX green neutral lipid stain, and LysoTracker® Red DND-99 (a fluorescent technique designed for labeling acidic organelles such as lysosomes). Lysosomal lamellar bodies were identified by transmission electron microscopy. In brief, after culture and treatment on 24 mm polycarbonate membrane transwell inserts (0.4 μm pore size), cells were fixed in a solution of 2% formaldehyde+2.5% glutaraldehyde, in 0.08 M sodium cacodylate buffer, pH 7.4, post-fixed with 2% osmium tetroxide in 0.1 M sodium cacodylate buffer, and stained en bloc with 2% aqueousuranyl acetate. […] Cross sections (1 μM) were stained with 1% toluidine blue in 1% sodium tetraborate solution. Ultra-thin sections (60-90 nm) were imaged with a transmission electron microscope interfaced with a digital CCD camera. For biochemical assessments, cellular lipids were extracted with chloroform and methanol from samples with the same amount of protein. Lipids were then evaluated with high-performance thin-layer chromatography. With regard to the staining results, three Filipin, five LipidTox and four LysoTracker studies were conducted, and each experiment was performed in duplicate. Four random pictures were taken of each group, and four random areas were selected for the measurement of fluorescent intensities. The HPTLC experiments were performed in duplicate more than three times. Image data were quantified with ImageJ (http://rsbweb.nib.gov/ij/index.html). Electron microscopic analyses were performed in triplicate.
The experiment included green neutral lipid staining. Immortalized human meibomian gland epithelial cells were cultured in slides treated to facilitate cell growth in FBS-containing medium in the presence or absence of IGF-1, anti-IGF-1R, and/or GH. Media were replaced every 2 to 3 days for a total of 6 days, at which time cells were washed and fixed in 4% paraformaldehyde for 30 minutes. After additional washes, cells were stained with green neutral lipid stain in a humid chamber for 30 minutes. Coverslips were mounted on slides with an antifade reagent that contains 4′,6-diamidino-2-phenylindole nuclear stain and permitted to dry overnight before imaging with a microscope. Fluorescence intensity was quantified using image-processing software.

[2] = system: immortalized human meibomian gland epithelial cells; experiment: Cell proliferation, cells counted with a hemocytometer; details: for cell proliferation: 10 nM IGF-1 or 10 μg/mL AZM, 13 days, P<0.0001; for cell number: 10 nM
Method: as §1, §2
Regarding cell proliferation assay, the human meibomian gland epithelial cells and LNCaP cells were cultured in 12-well plates in designated media and then exposed to IGF-1 or GH for defined periods. At experimental termination, cells were trypsinized and counted with a hemocytometer.
FIGS. 10a, 10b, and 10c illustrate the influence of IGF-1 on the proliferation of human meibomian gland epithelial cells. Cells were cultured (100,000 cells/well in 12-well plates, 3 wells per group) in basal, proliferating, and/or differentiating media and treated with IGF-I for 2 to 6 days. […] P values are for post hoc comparison compared with the control value. […] ANOVA indicates analysis of variance; EGF-BPE, epidermal growth factor-bovine pituitary extract; KSFM, keratinocyte serum-free medium. All comparisons are with control value. Whiskers mark SEM. aP<0.05 compared with the control value, post hoc test.

[3] = system: human meibomian gland epithelial cells; experiment: Immunoblot of SREBP-1 and cyclins B1, D1; details: for amount of the precursor form of SREBP-1 protein: 10 nM, 6 days, differentiation media
Method: The disclosure turns now to sodium dodecyl sulfate-polyacrylamide gel, electrophoresis, and immunoblots. Cells were directly lysed in Laemmli buffer supplemented with 1% protease inhibitor cocktail (Sigma-Aldrich) and 5% β-mercaptoethanol (Sigma-Aldrich). Lysates were heated at 95° C. for 10 minutes, separated by sodium dodecyl sulfate-polyacrylamide gel electrophoresis on 10% Tris-glycine precast gels, and transferred to polyvinylidene difluoride membranes. Rabbit or mouse antibodies used were specific for phosphorylated Akt (p-Akt), pan-Akt, p-FoxO1, FoxO1, p-JAK2, JAK2, and β-actin; for p-ERK, ERK-2, STAT5, and the precursor form of SREBP-1; and for p-STAT5. Membranes were blocked with 5% bovine serum albumin in Tris-buffered saline containing 0.01% polysorbate 20. All primary antibodies were diluted to 1:1000 in blocking buffer except for p-Akt (1:4000), p-ERK (1:2000), ERK-2 (1:4000), SREBP-1 (1:200), and β-actin (1:10 000). Horseradish peroxidase-conjugated secondary antibodies were goat anti-rabbit IgG and Fc-specific goat anti-mouse IgG diluted to 1:5000. Proteins were visualized with enhanced chemiluminescent substrate or with ultrasensitive chemiluminescent substrate. Densitometry was performed with image-processing software.
Turning to the influence of IGF-1 and GH on SREBP-1 expression and lipid accumulation, the experiments examined whether IGF-1 stimulates SREBP-1 expression and lipid accumulation in human meibomian gland epithelial cells. Cells were cultured for 6 days in differentiation media with IGF-1 and then processed the cells for protein and histologic analysis.
FIGS. 11a, 11b, 11c, and 11d illustrate the effect of IGF-1 on sterol regulatory element-binding protein (SREBP-1) expression and lipid accumulation in human meibomian gland epithelial cells. Cells were exposed to IGF-1 or growth hormone (GH) for 6 days in differentiation media and then processed for the analysis of the precursor form of SREBP-1 protein. […] represents 4′,6-diamidino-2-phenylindole nuclear staining. The SREBP-1 densitometry, normalized to that of β-actin, and neutral lipid staining fluorescence intensity (6 field views per treatment condition) were quantified by using image-processing software. These experiments were repeated at least 3 times with similar results. ANOVA indicates analysis of variance; AU, arbitrary units. Whiskers represent SEM.
FIGS. 15a, 15b, 15c, and 15d illustrate the effect of IGF-1, AZM, and IFG-1+AZM combination on the expression of SREBP-1, cyclins B1, and D1. Cells were incubated with vehicle, 10 nM IGF-1, 10 μg/mL AZM, or IGF-1+AZM combination for 5 days. Cell lysates were evaluated on immunoblots for precursor and mature forms of SREBP-1, cyclins B1 and D1. FIG. 15a quantifies the protein band intensities using ImageJ. […] These experiments were repeated at least three times with similar results.

[4] = 10 nM IGF-1 or 10 μg/mL AZM, 5 days
[5] = azithromycin 10 μg/ml vs vehicle

Row | Molecule | accumulation of neutral lipids [1] | proliferation [2] | cell proliferation [2] | cell number ([2]; 10% FBS-containing medium, 2 to 6 days) | cell number ([2]; keratinocyte serum-free medium alone or with EGF-BPE, 2 days) | expression of pre-SREBP-1 ([3]; 10 nM IGF-1, 5 days) | expression of cyclin B1 [3, 4] | expression of mature SREBP-1 [3, 4] | amount of the precursor form of SREBP-1 protein [3] | expression of SREBP-1 protein ([3]; IGF-1 10 nM, alone or with GH and/or DHT) | fluorescence intensity of LipidTOX staining ([1]; 10 μg/mL, 13 days, two-way ANOVA P<0.0001) | accumulation of neutral lipids (LipidTOX) ([1]; 10 μg/ml, 5 days) | time to marked increase of number, size and staining intensity of intracellular lipid-containing vesicles [1, 5] | accumulation of lipid [1, 5] | accumulation of lipid ([1]; azithromycin 10 μg/ml vs vehicle, listed as azithromycin) | proliferation ([2]; azithromycin 10 μg/ml, absence and presence of serum, days 1 to 7) | expression of SREBP-1 protein ([3]; azithromycin 10 μg/ml) | proliferation ([2]; any of the media, doses 0.1 to 100 nM)
1 | IGF-1: recombinant human insulin-like growth factor 1 | increase in the accumulation of neutral lipids | increases the proliferation | significant but opposite effect | increase in cell number | not under basal conditions | significantly affected | significantly affected | significantly affected | rise in the amount of the precursor form of SREBP-1 protein | significant increase in the expression of SREBP-1 protein | – | – | – | – | – | – | – | –
2 | CC[C@H]1OC(=O)[C@H](C)[C@@H](O[C@H]2C[C@@](C)(OC)[C@@H](O)[C@H](C)O2)[C@H](C)[C@@H](O[C@@H]2O[C@H](C)C[C@H](N(C)C)[C@H]2O)[C@](C)(O)C[C@@H](C)CN(C)[C@H](C)[C@@H](O)[C@]1(C)O [Azithromycin] | – | – | significant but opposite effect | – | – | – | – | significant effect | – | – | significant effect | significantly stimulates the accumulation | ≤ 3 days | striking, time-dependent accumulation of lipid | time-dependent accumulation of lipids; also recorded: striking, time-dependent accumulation of lipid | generally reduced the proliferation | increased expression | –
3 | GH: human growth hormone | not duplicated | – | – | – | – | – | – | – | not duplicated | – | – | – | – | – | – | – | – | no influence on the proliferation

Reference: US20200297820A1, “STIMULATION OF HUMAN MEIBOMIAN GLAND FUNCTION” (The Schepens Eye Research Institute, Inc., priority 2013, published 2020)
